Drawing on ChEMBL document CHEMBL1152087, “Inhibition of mevalonate 5-pyrophosphate decarboxylase by a proline-containing transition state analog” (Bioorg Med Chem Lett, 1996), this text covers IC50 for two molecules.

Test [1] concerns the target T1, Diphosphomevalonate decarboxylase (Homo sapiens, UniProt P53602).
T1 sequence (P53602 whole entry): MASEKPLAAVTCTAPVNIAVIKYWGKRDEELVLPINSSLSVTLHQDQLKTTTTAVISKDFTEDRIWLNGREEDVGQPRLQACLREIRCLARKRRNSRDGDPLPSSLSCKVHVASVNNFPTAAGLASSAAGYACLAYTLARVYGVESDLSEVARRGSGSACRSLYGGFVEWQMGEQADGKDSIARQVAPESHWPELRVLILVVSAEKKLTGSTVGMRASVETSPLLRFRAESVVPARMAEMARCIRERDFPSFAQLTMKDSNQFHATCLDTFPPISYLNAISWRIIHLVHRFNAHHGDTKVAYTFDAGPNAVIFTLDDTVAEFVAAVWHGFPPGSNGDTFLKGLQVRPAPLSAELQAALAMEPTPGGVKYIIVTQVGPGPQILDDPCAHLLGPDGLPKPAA
Briefly: Compound was evaluated for its inhibitory activity against Mevalonate 5-pyrophosphate decarboxylase.

Test [2] addresses T1, Diphosphomevalonate decarboxylase. Briefly: Compound was evaluated for its inhibitory activity against MevPP decarboxylase.

SMILES strings stand for the structures.

What is called IC50 is the concentration that inhibits the measured activity by half. The low end stands for greater potency, the high end for weaker potency. In the case of `O=C(O)CSCCOP(=O)(O)OP(=O)(O)O`, in test [1], the IC50 was 150 nM.

In turn, `CN(CC(=O)O)C(=O)COP(=O)(O)OP(=O)(O)O` gave an IC50 in test [2] of 300 nM. This lies in the sub-micromolar range.
